# Assay: Drug loading of paclitaxel, etoposide, chloroquine into core library (Example 3)
smiles,measurement,setting,value
"CC(=O)O[C@H]1C(=O)[C@@]2(C)[C@H]([C@H](OC(=O)c3ccccc3)[C@]3(O)C[C@H](OC(=O)[C@H](O)[C@@H](NC(=O)c4ccccc4)c4ccccc4)C(C)=C1C3(C)C)[C@]1(OC(C)=O)CO[C@@H]1C[C@@H]2O [Paclitaxel, paclitaxel]",core composition at loading maximum,polymer:drug 1:1,90 % B
COc1cc([C@@H]2c3cc4c(cc3[C@@H](O[C@@H]3O[C@@H]5CO[C@@H](C)O[C@H]5[C@H](O)[C@H]3O)[C@H]3COC(=O)[C@H]23)OCO4)cc(OC)c1O [etoposide],"LE+LC, fold higher in the absence of H-bonding groups in the core",100% B core,> 2 ×
CCN(CC)CCCC(C)Nc1ccnc2cc(Cl)ccc12 (stereo not drawn) [chloroquine],loading trend with core composition,polymer:drug 1:1,increased loading with increasing H-bonding

# Source: patent US20240408027A1, “HIGH DRUG LOADING POLYMERS” (priority 2021, published 2024)
